{"source": "paper PMC2758719", "about": "(Molecular Systems Biology, 2009)", "target": "T1, PfkA (Escherichia coli, UniProt P0A796)", "T1 sequence (P0A796 1-320)": "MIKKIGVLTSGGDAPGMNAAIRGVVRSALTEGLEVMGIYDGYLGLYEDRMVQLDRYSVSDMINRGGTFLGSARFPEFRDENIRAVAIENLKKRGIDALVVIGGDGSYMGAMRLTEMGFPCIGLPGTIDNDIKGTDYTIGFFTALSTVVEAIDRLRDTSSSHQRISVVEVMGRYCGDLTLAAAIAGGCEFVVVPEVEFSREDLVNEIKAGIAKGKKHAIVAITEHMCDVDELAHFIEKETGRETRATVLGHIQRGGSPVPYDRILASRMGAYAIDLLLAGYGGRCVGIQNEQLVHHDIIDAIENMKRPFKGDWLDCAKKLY", "experiment": "CE-MS quantification of metabolites after incubation", "format": "biochemical", "conditions": "5 mM S7P, 2 mM ATP, 2 uM enzyme, 50 mM MOPS potassium buffer, 37 °C, 1 h", "data": [{"smiles": "O=P(O)(O)OC[C@@H](O)[C@H]1OC(O)(CO)[C@@H](O)[C@@H]1O", "note": "(stereo partly shown) [S7P]", "values": [{"measurement": "CE-MS quantification of metabolites after incubation", "result": "When S7P and ATP were incubated with PfkA, S7P and ATP were consumed"}]}]}
